Laboratory results from ChEMBL document CHEMBL6153089, “Design, Synthesis, and Biological Evaluation of Thieno[3,2-d]pyrimidine Derivatives as the First Bifunctional PI3Kδ Isoform Selective/Bromodomain and Extra-Terminal Inhibitors” (J Med Chem, 2025).
The source made the active and inactive calls. No cut-off for these calls is given here.

What was measured:
SUD4 [1] = assay: Induction of apoptosis in human SU-DHL-4 cells assessed as early apoptotic cells at 0.25 uM incubated for 24 hrs by Annexin V-FITC/PI staining based flow cytometric analysis (reference value: 25.3 %); format: functional
[2] = Half-life in female BALB/c mouse at 1 mg/kg, iv measured after 12 hrs by LC-MS/MS analysis; format: ADME, organism-based; conditions: in vivo
[3] = Toxicity in female BALB/c mouse model xenografted with human SU-DHL-6 cells assessed as effect on liver histopathology at 20 mg/kg, po administered once daily via gavage for 15 days by H and E staining based analysis; format: organism-based; conditions: in vivo, 360 h, time 15 day
[4] = biological target: T1, Bromodomain-containing protein 4 (Homo sapiens, UniProt O60885); assay: Inhibition of His-tagged BRD4-BD2 (unknown origin) incubated for 30 mins in presence of ATP by Alphascreen assay
SUD4 [5] = assay: Induction of apoptosis in human SU-DHL-4 cells assessed as early apoptotic cells at 0.5 uM incubated for 24 hrs by Annexin V-FITC/PI staining based flow cytometric analysis (reference value: 25.3 %); format: functional
[6] = biological target: Phosphatidylinositol 3-kinase C2 domain-containing subunit gamma (Homo sapiens) (UniProt O75747); assay: Inhibition of human PI3KC2gamma at 1 uM relative to control
SUD4 [7] = assay: Induction of apoptosis in human SU-DHL-4 cells assessed as decrease in Bcl-2 protein expression at 0.25 to 1 uM incubated for 12 hrs by Western blot analysis; format: functional, cell-based; conditions: dose 0.25-1 µM
[8] = biological target: Bromodomain-containing protein 2 (Homo sapiens, UniProt P25440); assay: Inhibition of His-tagged BRD2-BD1 (unknown origin) incubated for 30 mins in presence of ATP by Alphascreen assay
SUD4 [9] = assay: Antiproliferative activity against human SU-DHL-4 cells assessed as inhibition of cell proliferation by measuring reduction in cell count incubated for 6 days by photographic analysis; format: functional, cell-based; conditions: dose 25-100 nM, time 6.0 day
SU-DHL-6 [10] = assay: Induction of apoptosis in human SU-DHL-6 cells assessed as early apoptotic cells at 1 uM incubated for 24 hrs by Annexin V-FITC/PI staining based flow cytometric analysis (reference value: 32.1 %); format: functional
SU-DHL-6 [11] = assay: Induction of apoptosis in human SU-DHL-6 cells assessed as viable cells at 0.25 uM incubated for 24 hrs by Annexin V-FITC/PI staining based flow cytometric analysis (reference value: 61.2 %); format: functional; conditions: read-out: Activity
[12] = system: PI3-kinase p110-alpha/p85-alpha (Homo sapiens), P27986+P42336 [E542K]; assay: Inhibition of human p110alpha-E545K mutant/p85alpha at 1 uM relative to control; format: protein-complex assay
SUD4 [13] = assay: Antiproliferative against activity human SU-DHL-4 cells assessed as inhibition of cell growth incubated for 72 hrs by Celltiter-luminescence analysis; format: functional, cell-based; conditions: SU-DHL-4, 72 h
[14] = biological target: Phosphatidylinositol 4-phosphate 3-kinase C2 domain-containing subunit alpha (Homo sapiens) (UniProt O00443); assay: Inhibition of human PI3KC2alpha at 1 uM relative to control
Chain of Phosphatidylinositol 4-phosphate 3-kinase C2 domain-containing subunit alpha (Homo sapiens) (O00443 whole entry, the tested form may be a part): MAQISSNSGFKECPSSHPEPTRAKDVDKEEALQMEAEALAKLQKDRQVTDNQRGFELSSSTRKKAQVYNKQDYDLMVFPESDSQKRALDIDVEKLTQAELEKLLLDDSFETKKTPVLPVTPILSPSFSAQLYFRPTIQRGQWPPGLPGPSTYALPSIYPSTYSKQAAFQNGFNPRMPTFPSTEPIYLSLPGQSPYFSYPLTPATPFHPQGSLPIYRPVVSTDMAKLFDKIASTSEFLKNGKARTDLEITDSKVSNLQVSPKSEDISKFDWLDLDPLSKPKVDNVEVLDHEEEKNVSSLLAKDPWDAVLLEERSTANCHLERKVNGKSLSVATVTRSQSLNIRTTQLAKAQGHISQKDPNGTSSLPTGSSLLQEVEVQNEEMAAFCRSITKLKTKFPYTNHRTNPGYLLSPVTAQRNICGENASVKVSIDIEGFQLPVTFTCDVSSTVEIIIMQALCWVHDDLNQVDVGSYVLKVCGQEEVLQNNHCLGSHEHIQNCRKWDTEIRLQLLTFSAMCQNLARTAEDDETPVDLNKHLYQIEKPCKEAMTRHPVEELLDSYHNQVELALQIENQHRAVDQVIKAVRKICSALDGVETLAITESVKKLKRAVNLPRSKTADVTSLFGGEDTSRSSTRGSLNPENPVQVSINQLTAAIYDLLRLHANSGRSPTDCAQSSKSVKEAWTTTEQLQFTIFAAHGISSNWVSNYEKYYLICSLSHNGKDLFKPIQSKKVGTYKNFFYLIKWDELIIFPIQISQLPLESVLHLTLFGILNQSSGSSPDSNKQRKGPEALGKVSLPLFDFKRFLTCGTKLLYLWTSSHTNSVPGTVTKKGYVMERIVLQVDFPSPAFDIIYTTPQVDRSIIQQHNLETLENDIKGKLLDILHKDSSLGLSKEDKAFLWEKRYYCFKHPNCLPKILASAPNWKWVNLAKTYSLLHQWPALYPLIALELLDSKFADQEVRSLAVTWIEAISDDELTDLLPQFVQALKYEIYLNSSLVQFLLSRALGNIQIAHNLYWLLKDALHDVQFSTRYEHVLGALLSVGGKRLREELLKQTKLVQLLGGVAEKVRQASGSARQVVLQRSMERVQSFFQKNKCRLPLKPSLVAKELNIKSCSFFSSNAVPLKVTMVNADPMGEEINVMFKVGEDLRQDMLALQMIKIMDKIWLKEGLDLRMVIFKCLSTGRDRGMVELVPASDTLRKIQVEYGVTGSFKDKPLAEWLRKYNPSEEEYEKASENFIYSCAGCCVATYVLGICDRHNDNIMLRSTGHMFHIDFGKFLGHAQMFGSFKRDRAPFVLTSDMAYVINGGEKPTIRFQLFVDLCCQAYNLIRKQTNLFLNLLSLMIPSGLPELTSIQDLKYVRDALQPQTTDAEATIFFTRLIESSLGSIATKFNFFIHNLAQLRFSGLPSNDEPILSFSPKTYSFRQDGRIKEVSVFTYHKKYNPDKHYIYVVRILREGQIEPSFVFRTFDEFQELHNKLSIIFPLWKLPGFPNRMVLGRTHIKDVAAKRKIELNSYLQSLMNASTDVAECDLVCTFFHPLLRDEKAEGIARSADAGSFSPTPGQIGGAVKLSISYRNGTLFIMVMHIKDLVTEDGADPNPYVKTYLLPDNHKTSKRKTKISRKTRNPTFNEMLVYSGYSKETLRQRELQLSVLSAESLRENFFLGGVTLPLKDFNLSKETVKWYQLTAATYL

SU-DHL-4 = assay: Inhibition of AKT phosphorylation in human SU-DHL-4 cells at 0.25 to 1 uM incubated for 12 hrs by Western blot analysis; format: cell-based; conditions: dose 0.25-1 µM
SUD4 [15] = assay: Cell cycle arrest in human SU-DHL-4 cells assessed as accumulation of cells at S phase incubated for 12 hrs by PI staining based flow cytometric analysis; format: functional; conditions: dose 0.25-1 µM
SUD4 [16] = assay: Induction of apoptosis in human SU-DHL-4 cells assessed as viable cells at 0.5 uM incubated for 24 hrs by Annexin V-FITC/PI staining based flow cytometric analysis (reference value: 65.2 %); format: functional; conditions: read-out: Activity
SU-DHL-6 [17] = assay: Cell cycle arrest in human SU-DHL-6 cells assessed as accumulation of cells at S phase incubated for 12 hrs by PI staining based flow cytometric analysis; format: functional; conditions: dose 0.25-1 µM
SUD4 [18] = assay: Induction of apoptosis in human SU-DHL-4 cells assessed as late apoptotic cells at 0.25 uM incubated for 24 hrs by Annexin V-FITC/PI staining based flow cytometric analysis (reference value: 6.74 %); format: functional
[19] = biological target: Bromodomain-containing protein 3 (Homo sapiens, UniProt Q15059); assay: Inhibition of His-tagged BRD3-BD1 (unknown origin) incubated for 30 mins in presence of ATP by Alphascreen assay
Chain of Bromodomain-containing protein 3 (Q15059 whole entry): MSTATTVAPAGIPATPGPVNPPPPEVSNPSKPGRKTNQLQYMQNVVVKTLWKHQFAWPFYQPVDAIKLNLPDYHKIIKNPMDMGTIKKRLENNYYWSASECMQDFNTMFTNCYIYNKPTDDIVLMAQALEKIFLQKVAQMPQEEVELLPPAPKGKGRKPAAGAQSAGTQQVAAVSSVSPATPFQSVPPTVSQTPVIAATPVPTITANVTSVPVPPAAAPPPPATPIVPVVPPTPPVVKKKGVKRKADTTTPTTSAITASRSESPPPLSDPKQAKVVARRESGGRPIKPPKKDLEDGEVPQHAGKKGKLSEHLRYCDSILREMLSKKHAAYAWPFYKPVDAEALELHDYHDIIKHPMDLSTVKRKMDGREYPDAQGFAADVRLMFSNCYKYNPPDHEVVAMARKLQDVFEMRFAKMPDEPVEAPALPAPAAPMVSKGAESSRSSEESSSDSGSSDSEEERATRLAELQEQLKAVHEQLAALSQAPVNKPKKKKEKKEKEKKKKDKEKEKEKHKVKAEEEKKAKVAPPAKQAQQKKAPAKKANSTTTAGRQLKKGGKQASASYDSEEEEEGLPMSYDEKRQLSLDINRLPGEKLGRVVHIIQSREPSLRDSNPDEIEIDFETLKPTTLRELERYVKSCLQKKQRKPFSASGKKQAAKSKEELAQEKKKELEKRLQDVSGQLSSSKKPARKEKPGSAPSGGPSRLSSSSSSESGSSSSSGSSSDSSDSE

SUD4 [20] = assay: Induction of apoptosis in human SU-DHL-4 cells assessed as early apoptotic cells at 1 uM incubated for 24 hrs by Annexin V-FITC/PI staining based flow cytometric analysis (reference value: 25.3 %); format: functional
SUD4 [21] = assay: Induction of apoptosis in human SU-DHL-4 cells assessed as viable cells at 1 uM incubated for 24 hrs by Annexin V-FITC/PI staining based flow cytometric analysis (reference value: 65.2 %); format: functional; conditions: read-out: Activity
SUD4 [22] = assay: Induction of apoptosis in human SU-DHL-4 cells assessed as late apoptotic cells at 1 uM incubated for 24 hrs by Annexin V-FITC/PI staining based flow cytometric analysis (reference value: 6.74 %); format: functional
[23] = biological target: T1, Bromodomain-containing protein 4; assay: Inhibition of His-tagged BRD4-BD1 (unknown origin) at 10 nM incubated for 30 mins by Alphascreen assay relative to control
[24] = biological target: PI3K p110 beta/p85 alpha (Homo sapiens) (UniProt P27986+P42338); assay: Inhibition of human p110beta/p85alpha at 1 uM relative to control; format: protein-complex assay
Chain of PI3K p110 beta/p85 alpha (Homo sapiens) (P27986 2-724 limits assumed): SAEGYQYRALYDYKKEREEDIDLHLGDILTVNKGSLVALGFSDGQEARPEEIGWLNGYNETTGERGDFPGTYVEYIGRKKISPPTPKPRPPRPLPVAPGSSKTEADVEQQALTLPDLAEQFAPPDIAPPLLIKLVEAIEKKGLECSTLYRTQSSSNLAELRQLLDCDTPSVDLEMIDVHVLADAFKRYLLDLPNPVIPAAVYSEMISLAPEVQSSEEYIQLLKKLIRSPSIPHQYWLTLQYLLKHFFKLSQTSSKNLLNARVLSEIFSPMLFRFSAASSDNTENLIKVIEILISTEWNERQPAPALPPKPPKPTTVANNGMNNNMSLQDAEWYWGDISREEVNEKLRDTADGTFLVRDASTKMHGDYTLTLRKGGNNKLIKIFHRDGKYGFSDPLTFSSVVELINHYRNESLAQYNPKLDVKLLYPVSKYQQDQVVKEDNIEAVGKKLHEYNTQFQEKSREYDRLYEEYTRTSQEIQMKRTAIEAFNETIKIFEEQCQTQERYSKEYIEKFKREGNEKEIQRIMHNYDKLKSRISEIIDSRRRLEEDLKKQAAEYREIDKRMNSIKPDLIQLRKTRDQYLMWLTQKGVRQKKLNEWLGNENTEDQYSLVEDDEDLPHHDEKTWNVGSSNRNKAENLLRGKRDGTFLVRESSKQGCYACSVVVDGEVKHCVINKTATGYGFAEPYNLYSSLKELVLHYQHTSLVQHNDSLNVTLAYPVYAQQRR
Chain of PI3K p110 beta/p85 alpha (Homo sapiens) (P42338 whole entry partner): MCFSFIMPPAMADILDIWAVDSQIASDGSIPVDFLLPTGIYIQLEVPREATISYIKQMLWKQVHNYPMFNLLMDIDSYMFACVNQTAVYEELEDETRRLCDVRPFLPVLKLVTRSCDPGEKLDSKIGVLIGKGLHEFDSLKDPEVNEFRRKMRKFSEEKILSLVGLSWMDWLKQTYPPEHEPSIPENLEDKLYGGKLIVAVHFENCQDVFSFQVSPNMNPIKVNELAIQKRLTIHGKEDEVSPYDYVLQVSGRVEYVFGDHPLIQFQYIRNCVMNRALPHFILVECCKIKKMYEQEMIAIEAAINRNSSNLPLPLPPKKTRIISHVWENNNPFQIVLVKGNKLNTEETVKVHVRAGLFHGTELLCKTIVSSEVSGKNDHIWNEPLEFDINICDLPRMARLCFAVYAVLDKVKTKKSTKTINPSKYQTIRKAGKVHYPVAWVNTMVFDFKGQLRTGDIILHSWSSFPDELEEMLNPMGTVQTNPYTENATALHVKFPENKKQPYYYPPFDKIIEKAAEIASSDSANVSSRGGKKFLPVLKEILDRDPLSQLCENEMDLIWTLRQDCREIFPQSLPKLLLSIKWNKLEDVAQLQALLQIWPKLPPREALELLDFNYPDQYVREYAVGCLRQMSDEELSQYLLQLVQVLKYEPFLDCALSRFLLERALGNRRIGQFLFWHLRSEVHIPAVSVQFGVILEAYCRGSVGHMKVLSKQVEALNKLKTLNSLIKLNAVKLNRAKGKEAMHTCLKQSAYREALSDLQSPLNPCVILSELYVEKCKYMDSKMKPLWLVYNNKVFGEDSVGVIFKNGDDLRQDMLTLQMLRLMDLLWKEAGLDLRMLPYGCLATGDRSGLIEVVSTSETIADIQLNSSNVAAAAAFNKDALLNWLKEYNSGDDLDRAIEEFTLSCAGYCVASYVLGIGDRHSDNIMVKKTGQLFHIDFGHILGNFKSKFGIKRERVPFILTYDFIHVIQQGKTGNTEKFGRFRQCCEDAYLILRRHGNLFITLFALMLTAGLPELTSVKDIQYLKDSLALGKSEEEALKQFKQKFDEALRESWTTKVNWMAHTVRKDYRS

[25] = Oral bioavailability in female BALB/c mouse at 20 mg/kg measured after 24 hrs by LC-MS/MS analysis; format: ADME, organism-based; conditions: in vivo
[26] = Toxicity in female BALB/c mouse model xenografted with human SU-DHL-6 cells assessed as effect on body weight at 20 mg/kg, po administered once daily via gavage for 15 days; format: organism-based; conditions: in vivo, 360 h, time 15 day
[27] = biological target: Phosphatidylinositol 4-phosphate 5-kinase type-1 alpha (Homo sapiens) (UniProt Q99755); assay: Inhibition of human PIP5K1alpha at 1 uM relative to control
Chain of Phosphatidylinositol 4-phosphate 5-kinase type-1 alpha (Homo sapiens) (Q99755 whole entry): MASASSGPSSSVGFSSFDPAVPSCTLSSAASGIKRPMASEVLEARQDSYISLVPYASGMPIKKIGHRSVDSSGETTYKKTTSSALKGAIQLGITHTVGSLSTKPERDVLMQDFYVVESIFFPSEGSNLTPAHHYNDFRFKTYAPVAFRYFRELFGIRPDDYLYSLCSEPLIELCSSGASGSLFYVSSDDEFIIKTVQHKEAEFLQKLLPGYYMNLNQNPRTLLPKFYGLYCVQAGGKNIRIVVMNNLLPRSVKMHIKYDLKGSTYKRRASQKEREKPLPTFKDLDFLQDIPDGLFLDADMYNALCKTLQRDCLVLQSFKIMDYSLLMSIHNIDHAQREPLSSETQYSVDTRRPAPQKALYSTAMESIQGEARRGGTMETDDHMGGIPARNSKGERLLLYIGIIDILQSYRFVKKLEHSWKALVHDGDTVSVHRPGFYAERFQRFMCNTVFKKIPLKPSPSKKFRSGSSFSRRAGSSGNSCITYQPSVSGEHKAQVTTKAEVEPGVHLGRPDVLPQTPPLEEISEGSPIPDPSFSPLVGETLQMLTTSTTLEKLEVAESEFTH

[28] = Toxicity in female BALB/c mouse model xenografted with human SU-DHL-6 cells assessed as effect on kidney histopathology at 20 mg/kg, po administered once daily via gavage for 15 days by H and E staining based analysis; format: organism-based; conditions: in vivo, 360 h, time 15 day
SU-DHL-6 [29] = assay: Induction of apoptosis in human SU-DHL-6 cells assessed as viable cells at 1 uM incubated for 24 hrs by Annexin V-FITC/PI staining based flow cytometric analysis (reference value: 61.2 %); format: functional; conditions: read-out: Activity
Homo sapiens = species on record: Homo sapiens; assay: Inhibition of human p110alpha-H1047R mutant/p85alpha at 1 uM relative to control
SU-DHL-6 [30] = assay: Induction of apoptosis in human SU-DHL-6 cells assessed as late apoptotic cells at 0.5 uM incubated for 24 hrs by Annexin V-FITC/PI staining based flow cytometric analysis (reference value: 6.43 %); format: functional
[31] = Half-life in female BALB/c mouse at 20 mg/kg, po measured after 24 hrs by LC-MS/MS analysis; format: ADME, organism-based; conditions: in vivo
[32] = Tmax in female BALB/c mouse at 1 mg/kg, iv measured after 12 hrs by LC-MS/MS analysis; format: ADME, organism-based; conditions: in vivo
SU-DHL-6 [33] = assay: Downregulation of c-Myc expression in human SU-DHL-6 cells at 0.25 to 1 uM incubated for 12 hrs by Western blot analysis; format: functional, cell-based; conditions: dose 0.25-1 µM

Cn1cc(-c2nc(N3CCOCC3)c3sc(CN4CCC(C(C)(C)O)CC4)cc3n2)c2cc[nH]c2c1=O
Activity (SUD4 [1]): 32.4% | half-life [2]: 2 h | Activity [3]: Non-toxic | IC50 [4]: 2 nM | Activity (SUD4 [5]): 30.8% | inhibition [6]: 15.6% | Activity (SUD4 [7]): Active; Modest Effect Observed | IC50 [8]: 18 nM | Activity (SUD4 [9]): Dose-dependent-effect; Stronger Effect Observed At Lower Concentration Than Those Of Sf2523 | Activity (SU-DHL-6 [10]): 48.9% | viability at 0.25 µM (SU-DHL-6 [11]): 53.7% | inhibition [12]: 17.3% | IC50 (SUD4 [13]): 91 nM | inhibition [14]: 3.4% | inhibition (SU-DHL-4): Active | Activity (SUD4 [15]): Dose-dependent-effect | viability at 0.5 µM (SUD4 [16]): 49.1% | Activity (SU-DHL-6 [17]): Dose-dependent-effect | Activity (SUD4 [18]): 12.6% | IC50 [19]: 32 nM | Activity (SUD4 [20]): 45.3% | viability at 1 µM (SUD4 [21]): 28.1% | Activity (SUD4 [22]): 26.2% | inhibition [23]: 33.7% | inhibition [24]: 44.3% | bioavailability [25]: 74.8% | Activity [26]: Non-toxic | inhibition [27]: 72.6% | Activity [28]: Non-toxic | viability at 1 µM (SU-DHL-6 [29]): 41.8% | inhibition (Homo sapiens): 33.7% | Activity (SU-DHL-6 [30]): 7.86% | half-life [31]: 3.8 h | Tmax [32]: 1.98 min | Activity (SU-DHL-6 [33]): Active
